# How the values were obtained:
# [1] = Liver microsomes stability, human; format: in vitro ADME; conditions: for CLint scaled at 2 μM: read-out: Scaled-up CLint
# Method: (§1) The objective of this study was to estimate in vitro metabolic stability of exemplary compounds of Formula (I) or a pharmaceutically acceptable salt, solvate, and/or prodrug thereof in pooled human, male rat, and male mouse liver microsomes. The concentrations of compounds in reaction systems were evaluated by LC-MS/MS for estimating the stability in pooled human, male rat, and male mouse liver microsomes. The in vitro intrinsic clearances of test compounds were determined as well.
# (§2) A master solution in the “Incubation Plate” containing phosphate buffer, ultra-pure H2O, MgCl2 solution and liver microsomes was made according to Table 33. The mixture was pre-warmed at 37° C. water bath for 5 minutes.
# (§3) 40 μL of 10 mM nicotinamide adenine dinucleotide phosphate (NADPH) solution was added to each well. The final concentration of NADPH was 1 mM. The negative control samples were prepared by replacing NADPH with 40 μL of ultra-pure H2O. Samples were prepared in duplicate. Negative controls were prepared in singlet.
# (§4) The reaction was started with the addition of 4 μL of 200 μM exemplary test compounds of the disclosure or control compounds to each master solution to get the final concentration of 2 μM. This study was performed in duplicate.
# (§5) Aliquots of 50 μL were taken from the reaction solution at 0, 15, 30, 45, and 60 minutes. The reaction solutions were stopped by the addition of 4 volumes of cold methanol with IS (100 nM alprazolam, 200 nM imipramine, 200 nM labetalol, and 2 μM ketoprofen). Samples were centrifuged at 3,220 g for 40 minutes. Aliquot of 90 μL of the supernatant was mixed with 90 μL of ultra-pure H2O and then was used for LC-MS/MS analysis.
# (§6) LC/MS analysis was performed for all samples from this study using a Shimadzu liquid chromatograph separation system equipped with degasser DGU-20A5R; solvent delivery unit LC-30AD; system controller SIL-30AC; column oven CTO-30A; CTC Analytics HTC PAL System. Mass spectrometric analysis was performed using a Triple Quad™ 5500 instrument.
# (§7) All calculations were carried out using Microsoft Excel. Peak area ratios of test compound to internal standard (listed in the below table) were determined from extracted ion chromatograms.
# (§8) All calculations were carried out using Microsoft Excel. Peak areas were determined from extracted ion chromatograms. The slope value, k, was determined by linear regression of the natural logarithm of the remaining percentage of the parent drug vs. incubation time curve.
# (§9) The in vitro half-life (in vitro t1/2) was determined from the slope value:
# (§10) Conversion of the in vitro t1/2 (min) into the in vitro intrinsic clearance (in vitro CLint, in μL/min/mg proteins) was done using the following equation (mean of duplicate determinations): […]
# as §1, with “solvate” for “solvate,”, “rat” for “rat,”
# (§11) A master solution in the “Incubation Plate” containing phosphate buffer, ultra-pure H2O, MgCl2 solution and liver microsomes was made according to Table 67. The mixture was pre-warmed at 37° C. water bath for 5 minutes.
# (§12) 40 μL of 10 mM NADPH solution was added to each well. The final concentration of NADPH was 1 mM. The negative control samples were prepared by replacing NADPH with 40 μL of ultra-pure H2O. Samples were prepared in duplicate. Negative controls were prepared in singlet
# Aliquots of 50 μL were taken from the reaction solution at 0, 15, 30, 45 and 60 minutes. The reaction solutions were stopped by the addition of 4 volumes of cold methanol with IS (100 nM alprazolam, 200 nM imipramine, 200 nM labetalol and 2 μM ketoprofen).
# [2] = Liver microsomes stability, rat; format: in vitro ADME; conditions: for half-life at 2 μM / microsomal CLint at 2 μM / CLint scaled at 2 μM: male; for CLint scaled at 2 μM: read-out: Scaled-up CLint
# Method: as §1, §2, §3, §4, §5, §6, §7, §8, §9, §10
# as §1, with “solvate” for “solvate,”, “rat” for “rat,”
# as §11, §12
# Aliquots of 50 μL were taken from the reaction solution at 0, 15, 30, 45 and 60 minutes. The reaction solutions were stopped by the addition of 4 volumes of cold methanol with IS (100 nM alprazolam, 200 nM imipramine, 200 nM labetalol and 2 μM ketoprofen). […]
# [3] = Plasma protein binding by equilibrium dialysis, dog; format: in vitro ADME; conditions: Dog plasma, 1 μM
# Method: The final concentration of compound was 1 μM. The final concentration of DMSO was 0.5%. Ketoconazole was used as positive control in the assay.
# The assay was performed in duplicate.
# All calculations were carried out using Microsoft Excel. […] The percentages of bound compound were calculated as follows: […]
# Ketoconazole was used as positive control in the assay.
# human 5-HT2B receptor = human 5-HT2B receptor (Homo sapiens, UniProt P41595); assay: Human 5-HT2B positive allosteric modulator (PAM) assay; format: cell-based; parameters: expressed in transfected cells; host or cells: HEK293
# Method: Compound potency (EC50) and efficacy (Max response) against the human 5-HT2B receptor in stably transfected HEK293 cells were determined in a GPCR cell-based assay.
# (§13) For Positive Allosteric Modulator determination, cells were pre-incubated with sample followed by EC20 addition. Intermediate dilution of sample stocks were performed to generate 5× samples in assay buffer. 5 μL of 5× samples were added to cells and incubated at 37° C. for 10 mins. 5 μL of agonist at 6×EC20 concentration was added and cells were incubated at 37° C. for 120 mins. Final assay vehicle concentration was 1%. The results are expressed as percent efficacy relative to the maximum response of the control ligand (serotonin) in Table 14.
# Compound potency (EC50) and efficacy (Max response) against the human 5-HT2B receptor in stably transfected HEK293 cells was determined in a GPCR cell-based assay.
# as §13, with “sample stocks was performed to” for “sample stocks were performed to”, “added and the cells were” for “added and cells were”, “120 mins. The final assay vehicle” for “120 mins. Final assay vehicle”, “in Table 64.” for “in Table 14.”
# [4] = Human liver microsomes, 2 μM, 0.5 mg/mL, NADPH
# [5] = human liver microsomes, With Cofactors, 0 min
# [6] = human liver microsomes, With Cofactors, 30 min
# [7] = human liver microsomes, With Cofactors, 60 min
# [8] = human liver microsomes, Without Cofactors, 0 min
# [9] = human liver microsomes, Without Cofactors, 30 min
# [10] = human liver microsomes, Without Cofactors, 60 min
# [11] = Rat liver microsomes, 2 μM, 0.5 mg/mL, NADPH
# [12] = human liver microsomes, 2 μM compound, 0.5 mg/mL microsomes
# [13] = rat liver microsomes, 2 μM compound, 0.5 mg/mL microsomes
# human 5-HT2B receptor, sequence (P41595 whole entry): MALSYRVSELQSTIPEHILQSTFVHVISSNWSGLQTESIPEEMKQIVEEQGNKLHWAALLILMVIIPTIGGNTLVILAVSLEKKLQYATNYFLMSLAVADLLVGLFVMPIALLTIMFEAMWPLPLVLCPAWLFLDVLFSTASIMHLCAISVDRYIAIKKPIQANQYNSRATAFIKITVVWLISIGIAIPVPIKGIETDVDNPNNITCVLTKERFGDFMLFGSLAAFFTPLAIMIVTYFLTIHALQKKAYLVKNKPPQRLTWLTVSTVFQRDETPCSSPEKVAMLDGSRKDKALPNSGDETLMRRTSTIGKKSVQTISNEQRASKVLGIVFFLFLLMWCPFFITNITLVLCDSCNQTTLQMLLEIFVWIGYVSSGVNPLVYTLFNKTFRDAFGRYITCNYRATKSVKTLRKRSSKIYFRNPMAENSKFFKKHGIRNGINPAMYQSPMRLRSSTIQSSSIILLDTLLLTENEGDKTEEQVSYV
compound,measurement,setting,value
"CSc1ccc2[nH]cc(C[C@H]3CCCN3C)c2c1 [(R) I-1, (R)-3-((1-Methylpyrrolidin-2-yl)methyl)-5-(methylthio)-1H-indole]",Predicted hepatic CL,[1]; Human liver microsomes,16.09 mL/min/kg
same,half-life at 2 μM,[1]; [4],24 min
same,microsomal CLint at 2 μM,[1]; [4],57.7 µL/min/mg
same,CLint scaled at 2 μM,[1]; Human liver microsomes,72.3 mL/min/kg
same,Remaining Percentage (%) 0 min,[1]; [5],100.00%
same,Remaining Percentage (%) 30 min,[1]; [6],50.51%
same,Remaining Percentage (%) 60 min,[1]; [7],17.72%
same,Remaining Percentage (%) 0 min,[1]; [8],100.00%
same,Remaining Percentage (%) 30 min,[1]; [9],101.47%
same,Remaining Percentage (%) 60 min,[1]; [10],97.56%
same,Predicted hepatic CL,[2]; Rat liver microsomes,44.80 mL/min/kg
same,Remaining Percentage (%) 0 min,"[2]; Rat liver microsomes, With Cofactors, 0 min",100.00%
same,Remaining Percentage (%) 30 min,"[2]; Rat liver microsomes, With Cofactors, 30 min",13.67%
same,Remaining Percentage (%) 60 min,"[2]; Rat liver microsomes, With Cofactors, 60 min",0.44%
same,Remaining Percentage (%) 0 min,"[2]; Rat liver microsomes, Without Cofactors, 0 min",100.00%
same,Remaining Percentage (%) 30 min,"[2]; Rat liver microsomes, Without Cofactors, 30 min",93.44%
same,Remaining Percentage (%) 60 min,"[2]; Rat liver microsomes, Without Cofactors, 60 min",95.17%
same,half-life at 2 μM,[2]; [11],10.4 min
same,microsomal CLint at 2 μM,[2]; [11],133 µL/min/mg
same,CLint scaled at 2 μM,[2]; Rat liver microsomes,238 mL/min/kg
same,"recovery at 6 h, 1 µM","[3]; Beagle, dog, equilibrium dialysis 6 hours",92.9%
same,"fraction unbound at 6 h, 1 μM","[3]; Beagle, equilibrium dialysis 6 hours, 37° C., read-out: % Bound (converted)",0.174
same,% Remaining @ 6 hours,"[3]; 6 hours, 37° C.",95.50%
same,EC50,human 5-HT2B receptor,> 10 µM
same,Emax (% of serotonin),"human 5-HT2B receptor; PAM mode, agonist at EC20, HEK293 cells, relative to maximum response of serotonin",0 % of serotonin
[2H]C([2H])(c1c[nH]c2ccc(OCCCCCN3C(=O)C4CCCCC4C3=O)cc12)[C@H]1CCCN1C([2H])([2H])[2H] (mixture of isomers) [Rac (R) I-248],Predicted hepatic CL,[1]; human liver microsomes,>19.64 mL/min/kg
same,half-life at 2 μM,[1]; [12],< 4.51 min
same,microsomal CLint at 2 μM,[1]; [12],> 307 µL/min/mg
same,Remaining Percentage,[1]; [5],100.00%
same,Remaining Percentage,[1]; [6],0.04%
same,Remaining Percentage,[1]; [7],0.00%
same,Remaining Percentage,[1]; [8],100.00%
same,Remaining Percentage,[1]; [9],100.47%
same,Remaining Percentage,[1]; [10],98.60%
same,CLint scaled at 2 μM,[1]; human liver microsomes,> 385 mL/min/kg
same,half-life at 2 μM,[2]; [13],< 4.51 min
same,microsomal CLint at 2 μM,[2]; [13],> 307 µL/min/mg
same,CLint scaled at 2 μM,[2]; rat liver microsomes,> 550 mL/min/kg
same,Predicted hepatic CL,[2]; rat liver microsomes,>50.17 mL/min/kg
same,Remaining Percentage,"[2]; rat liver microsomes, With Cofactors, 0 min",100.00%
same,Remaining Percentage,"[2]; rat liver microsomes, With Cofactors, 30 min",0.95%
same,Remaining Percentage,"[2]; rat liver microsomes, With Cofactors, 60 min",0.19%
same,Remaining Percentage,"[2]; rat liver microsomes, Without Cofactors, 0 min",100.00%
same,Remaining Percentage,"[2]; rat liver microsomes, Without Cofactors, 30 min",94.04%
same,Remaining Percentage,"[2]; rat liver microsomes, Without Cofactors, 60 min",94.04%
